Measured values published in patent publication US10107816B2, “G-protein coupled receptor-associated diagnostics and therapeutics for B-cell chronic lymphocytic leukemia” (THE REGENTS OF THE UNIVERSITY OF CALIFORNIA, priority 2013, dated 2018).
Entries after “also recorded” stand apart in the source; their conditions may differ. Where no end group is shown, it is not given here.

Columns and labels:
CLL cells [1] = test: cAMP accumulation assay (cAMP radioimmunoassay); type: cell-based, human; settings: aggressive CLL cells (n=8); 1 μM VIP + 100 nM IR284, relative to 100 nM IR284 alone; P<0.05
Procedure: The results are expressed relative to cAMP levels in cells treated only with 100 nM IR284, a PDE4/7 inhibitor. Statistical significance was determined by paired t test and is shown (*=P<0.05) compared to cells treated only with IR284.
(§1) Cycle thresholds (lower value denotes higher expression) normalized to 28S. Statistical significance was determined by Student's t-test and is depicted by (***) for P<0.001 compared to normal. […] Statistical significance was determined by paired t test with (*) P<0.05 compared to IR284 alone.
One million CLL-cells or normal PBMC/ml in […] buffer+10% FBS were plated in a 12-well cell culture plate and incubated for 20 min at 37° C. in air plus 5% CO2 with a dual PDE4/7 inhibitor (IR284). VIP or ACTH were then added to the 12-well culture plate and incubated for 10 min at 37° C. in air plus 5% CO2. The cells were then centrifuged at 1200 rpm for 5 min at 4° C. The media was aspirated and 50 μl of 7.5% trichloroacetic acid (TCA) was added to each cell pellet to release cAMP from the cells. The TCA-suspended sample was diluted in 1 ml 10 mM sodium acetate and acetylated with 20 ul triethylamine and 10 ul acetic anhydride. The competitive binding assay consists of 50 μl of diluted, acetylated sample, 25 μl AMP antibody and 25 μl ^125I-labeled cAMP (Perkin Elmer). […]

CLL cells [2] = test: Assay of cellular apoptosis (annexin V/PI flow cytometry) in CLL cells; type: cell-based, human; settings: for apoptosis in combination with IR284: with PDE inhibitor IR284 (100 nM), compared to IR284 alone
Procedure: (§2) FIG. 7 illustrates apoptosis of CLL cells (data from Aggressive and Indolent CLL cells), left panel, and normal B-cells (n=3), right panel, in response to 1 μM VIP+100 nM IR284. Statistical significance, determined by Student's t-test, is shown (*=P<0.05) compared to cells treated only with 100 nM IR284.
as §1
(§3) Flow cytometry was used to detect annexin V/fluorescein isothiocyanate (FITC) and propidium iodide (PI) staining to determine the apoptotic population of treated cells. CLL-cells or normal PBMC (1,000,000/ml) in […]+10% FBS were incubated for 48 hr in standard culture conditions with or without drugs and then assayed for annexinV/PI staining per manufacturer's protocol using a FACScan (Becton Dickinson Biosciences, San Jose, Calif.) flow cytometer.

normal B-cells = test: Assay of cellular apoptosis (annexin V/PI flow cytometry) in normal B-cells; type: cell-based, human; settings: normal B-cells (n=3)
Procedure: as §2, §3

[3] = tested on: NK.tert bone marrow-derived stromal cells; test: Stromal cell proliferation ([3H] thymidine) with conditioned media from indolent CLL cultures; type: cell-based, human; settings: conditioned media from indolent CLL cells incubated 24 hr with IR284 (100 nM) or VIP
Procedure: Mononuclear cells derived from the blood of Indolent CLL patients were grown in tissue culture media (RPMI 1640+10% Heat-Inactivated Fetal Bovine Serum) and incubated for 24 hr in the absence of any drug (“untreated CLL”), in the presence of the phosphodiesterase 4/7 inhibitor IR284 (100 nM) or the VIPR agonist VIP […]. In the 24 hr incubation period products excreted from the cells in response to the treatments accumulate in the media, which is called “conditioned media” (CM). CM was harvested from the cell cultures by subjecting them to centrifugation at 233 rcf for 10 minutes at 4° C. to pellet cells and debris. The liquid portion was removed and used as CM. To assess the impact of CM from the indolent CLL cultures upon the proliferation of bone marrow-derived stromal cells (which make up the supportive microenvironment of CLL in vivo), CM was added to NK.tert bone marrow-derived stromal cells along with [3H] thymidine to assess DNA synthesis/cell proliferation

CLL cells [4] = test: Spontaneous apoptosis of CLL cells (Annexin V surface staining); type: cell-based, human
From the text: FIG. 12 illustrates that the peptide hormone insulin-like peptide 3 (INSL3) protects CLL cells from spontaneous apoptosis.

LGR8 [5] = biological target: T1, LGR8 (Homo sapiens, UniProt Q8WXD0); settings: recombinant LGR8 in 293T cells; cited from earlier work
T1 construct: expressed in transfected cells; host or cells: 293T cells
T1 sequence (Q8WXD0 whole entry): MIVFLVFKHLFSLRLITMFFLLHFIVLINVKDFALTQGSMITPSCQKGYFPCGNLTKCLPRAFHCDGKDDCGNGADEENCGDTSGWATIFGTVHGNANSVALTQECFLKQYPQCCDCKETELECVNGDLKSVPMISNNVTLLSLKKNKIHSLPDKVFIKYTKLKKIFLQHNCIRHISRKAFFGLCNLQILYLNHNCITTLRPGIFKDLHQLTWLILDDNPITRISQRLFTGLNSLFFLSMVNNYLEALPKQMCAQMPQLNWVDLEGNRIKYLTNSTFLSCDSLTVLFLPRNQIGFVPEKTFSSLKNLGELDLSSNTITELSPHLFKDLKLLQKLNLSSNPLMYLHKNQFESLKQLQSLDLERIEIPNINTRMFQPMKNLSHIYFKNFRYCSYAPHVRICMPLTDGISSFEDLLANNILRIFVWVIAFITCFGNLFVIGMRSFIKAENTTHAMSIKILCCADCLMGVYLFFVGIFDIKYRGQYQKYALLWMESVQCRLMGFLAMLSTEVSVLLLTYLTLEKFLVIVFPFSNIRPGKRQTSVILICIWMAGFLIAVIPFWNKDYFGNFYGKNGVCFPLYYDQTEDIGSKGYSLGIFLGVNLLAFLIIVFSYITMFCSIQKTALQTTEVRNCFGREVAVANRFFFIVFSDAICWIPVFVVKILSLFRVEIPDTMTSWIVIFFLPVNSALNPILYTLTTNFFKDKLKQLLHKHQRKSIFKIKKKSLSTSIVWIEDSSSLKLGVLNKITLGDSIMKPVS

LGR8 [6] = settings: germ cells; via inhibitory G protein Gi; cited from earlier work
[7] = tested on: arrested oocytes in preovulatory follicles; settings: in vitro and in vivo; cited from earlier work
male germ cell = settings: in vivo; cited from earlier work
[8] = indolent CLL cells, with or without VIP or ACTH, with a phosphodiesterase inhibitor

VIP: vasoactive intestinal peptide receptor agonist, purchased from Tocris Bioscience (HSDAVFTDNYTRLRKQMAVKKYLNSILN; ends and bridges not checked; UniProt P01282 125-152, looked up)
cAMP accumulation (CLL cells [1]): significantly enhanced | apoptosis (CLL cells [2]; CLL cells, P<0.05, n=3): induced apoptosis | apoptosis (CLL cells [2]; aggressive CLL cells, 48 hr): increases apoptosis; also recorded: promote apoptosis | apoptosis in combination with IR284 (CLL cells [2]; aggressive CLL cells): significantly enhanced; also recorded: increase apoptosis | apoptosis (CLL cells [2]; [8]): not indolent CLL | apoptosis (normal B-cells): does not promote apoptosis | proliferation of stromal cells (DNA synthesis) [3]: suppressed proliferation

COc1ccc(C2=NN(C3CCN(C(=O)N4CCOCC4)CC3)C(=O)C3CC=CCC23)cc1Cl (stereo not shown) [IR284, (4-(3-chloro-4-methoxyphenyl)-2-(1-morpholine-4-carbonyl)piperadin-4-yl)-4a, 5,8,8a-tetrahydrophthalazin-1(2H)-one]
proliferation of stromal cells (DNA synthesis) [3]: suppressed proliferation

ACTH: a melanocortin 2 receptor [MC2R] agonist, purchased from GenWay (SYSMEHFRWGKPVGKKRRPVKVYPNGAEDESAEAFPLEF; Corticotropin; UniProt P01189 138-176, looked up)
apoptosis (CLL cells [2]; aggressive CLL cells, 48 hr): promote apoptosis | apoptosis in combination with IR284 (CLL cells [2]; aggressive CLL cells): increase apoptosis | apoptosis (CLL cells [2]; [8]): not indolent CLL

B1: INSL3: peptide hormone insulin-like peptide 3, LGR8 agonist (peptide, UniProt P51460 21-55; P51460 106-131, looked up)
Insulin-like 3 B chain: LGPAPTPEMREKLCGHHFVRALVRVCGGPRWSTEA
Insulin-like 3 A chain: AAATNPARYCCLSGCTQQDLLTLCPY
protection from apoptosis (CLL cells [4]): protects CLL cells from programmed cell death | adenylyl cyclase activation / intracellular cAMP (LGR8 [5]): increases accumulation of intracellular cAMP | cAMP production (LGR8 [6]): decreases in cAMP production | meiotic progression of arrested oocytes [7]: initiates meiotic progression | male germ cell apoptosis (male germ cell): suppresses male germ cell apoptosis
